Read-outs that look alike come from different tables or passages of the source.
How the values were obtained:
[1] = target: hADORA1/CHO (hA1 expressing) cells (Homo sapiens (Human), UniProt P30542); experiment: cell-based; details: FLIPR inhibition, 10 μM adenosine, read-out: cAMP & FLIPR IC50 (nM) hA1
hA2b/CHO = hA2b/CHO (Homo sapiens (Human), UniProt P29275); experiment: cAMP inhibition assay in hA2b/CHO cells, 10 μM adenosine; type: cell-based; details: read-out: cAMP & FLIPR IC50 (nM) hA2b;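 also: cells exposed to compound 30 min at 37 °C, then stimulated with adenosine a further 30 min, cAMP read after 60 min at room temperature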
hA2a/CHO = hA2a/CHO (Homo sapiens (Human), UniProt P29274); experiment: cAMP inhibition assay in hA2a/CHO cells, 10 μM adenosine; type: cell-based; details: read-out: cAMP & FLIPR IC50 (nM) hA2a;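 also: compounds added to cells 30 min ahead of adenosine, then a further 30 min at 37 °C with adenosine before cAMP detection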
mA2a/CHO = mA2a/CHO (Mus musculus (Mouse), UniProt Q60613); experiment: cAMP inhibition assay in mA2a/CHO cells, 10 μM adenosine; type: cell-based; details: read-out: cAMP & FLIPR IC50 (nM) mA2a;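 also: compounds preincubated 30 min at 37 °C before the adenosine challenge, then 30 min further stimulation, readout after 60 min detection reagent incubation at room temperature in 384-well plates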
hA2a = hA2a (Homo sapiens (Human), UniProt P29274); experiment: Radioligand binding to hA2a membrane with [3H]-CGS21680
Text: The empty boxes in the tables below indicate data not collected yet.

hA3/CHO = hA3/CHO (Homo sapiens (Human), UniProt P0DMS8); experiment: cell-based
Procedure: hA2a/CHO, hA2b/CHO, hA3/CHO and mA2a/CHO (Genscript) were plated at 5×10^3 cells/well into 384-well polystyrene plates at the day of experiment. Compounds were pre-incubated with cells for 30 min at 37° C., 5% CO2. Then 10 μM adenosine was added to the cells and incubated for 30 min at 37° C., 5% CO2. Detection reagent (CISBIO) was added and the plates were incubated for 60 min at room temperature. The signal was captured by Envision.

[2] = Binding Affinity (IC50 nM) hA2a
[3] = read-out: Binding Affinity (IC50 nM) hA2a

Sequence of mA2a/CHO (Q60613 whole entry): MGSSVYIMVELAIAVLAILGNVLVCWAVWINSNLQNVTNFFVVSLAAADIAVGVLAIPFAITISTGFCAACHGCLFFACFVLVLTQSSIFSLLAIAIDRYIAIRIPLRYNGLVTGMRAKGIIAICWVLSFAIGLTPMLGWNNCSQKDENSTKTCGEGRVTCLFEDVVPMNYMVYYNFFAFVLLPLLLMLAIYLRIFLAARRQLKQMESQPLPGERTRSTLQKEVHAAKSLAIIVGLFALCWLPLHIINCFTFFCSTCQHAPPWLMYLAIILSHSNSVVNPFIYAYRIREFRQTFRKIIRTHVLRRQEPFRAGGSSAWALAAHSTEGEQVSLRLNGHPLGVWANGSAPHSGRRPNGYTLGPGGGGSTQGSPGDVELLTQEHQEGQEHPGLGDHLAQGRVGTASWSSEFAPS
Sequence of hA3/CHO (P0DMS8 whole entry): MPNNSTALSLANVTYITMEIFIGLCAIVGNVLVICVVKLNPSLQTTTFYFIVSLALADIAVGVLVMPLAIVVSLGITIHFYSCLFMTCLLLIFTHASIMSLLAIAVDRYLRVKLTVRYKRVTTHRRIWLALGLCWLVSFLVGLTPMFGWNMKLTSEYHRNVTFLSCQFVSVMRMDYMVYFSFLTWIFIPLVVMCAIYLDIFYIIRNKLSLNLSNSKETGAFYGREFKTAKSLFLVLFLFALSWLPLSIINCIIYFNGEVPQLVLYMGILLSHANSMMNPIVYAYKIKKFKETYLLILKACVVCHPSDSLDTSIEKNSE
Sequence of hADORA1/CHO (hA1 expressing) cells (P30542 whole entry): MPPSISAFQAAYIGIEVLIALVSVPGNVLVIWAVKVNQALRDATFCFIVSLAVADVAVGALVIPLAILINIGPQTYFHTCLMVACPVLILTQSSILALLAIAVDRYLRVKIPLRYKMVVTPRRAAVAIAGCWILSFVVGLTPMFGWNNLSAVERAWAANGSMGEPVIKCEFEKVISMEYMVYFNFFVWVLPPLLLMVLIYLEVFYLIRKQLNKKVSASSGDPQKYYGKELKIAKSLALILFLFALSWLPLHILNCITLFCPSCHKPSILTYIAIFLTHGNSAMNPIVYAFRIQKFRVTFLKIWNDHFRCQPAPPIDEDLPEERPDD
Sequence of hA2a (P29274 whole entry): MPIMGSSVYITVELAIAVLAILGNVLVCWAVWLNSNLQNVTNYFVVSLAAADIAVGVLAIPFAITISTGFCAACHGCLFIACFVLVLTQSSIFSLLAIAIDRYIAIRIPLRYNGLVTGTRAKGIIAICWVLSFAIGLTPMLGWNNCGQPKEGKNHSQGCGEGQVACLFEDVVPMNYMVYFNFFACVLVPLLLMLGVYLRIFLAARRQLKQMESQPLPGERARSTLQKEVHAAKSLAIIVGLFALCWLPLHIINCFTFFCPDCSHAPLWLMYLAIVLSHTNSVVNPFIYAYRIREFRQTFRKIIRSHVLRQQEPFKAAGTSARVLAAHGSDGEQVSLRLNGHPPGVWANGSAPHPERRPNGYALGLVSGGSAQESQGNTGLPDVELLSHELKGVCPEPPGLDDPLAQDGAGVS
Sequence of hA2a/CHO (P29274 whole entry): as above
Sequence of hA2b/CHO (P29275 whole entry): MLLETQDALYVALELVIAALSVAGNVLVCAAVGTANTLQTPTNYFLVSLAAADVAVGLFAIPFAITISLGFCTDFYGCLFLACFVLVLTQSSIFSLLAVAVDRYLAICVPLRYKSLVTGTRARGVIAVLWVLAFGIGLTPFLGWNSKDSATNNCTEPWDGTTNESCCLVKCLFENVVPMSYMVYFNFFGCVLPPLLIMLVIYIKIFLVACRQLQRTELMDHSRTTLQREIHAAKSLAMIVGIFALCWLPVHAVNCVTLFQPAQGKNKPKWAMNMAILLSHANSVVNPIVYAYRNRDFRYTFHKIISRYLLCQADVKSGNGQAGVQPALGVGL

SMILES	IC50 [1] [nM]	IC50 (hA2b/CHO) [nM]	IC50 (hA2a/CHO) [nM]	IC50 (mA2a/CHO) [nM]	IC50 (hA2a; [2]) [nM]	IC50 (hA3/CHO) [nM]	IC50 (hA2a; [3]) [nM]
CC(NC(=O)c1nc(-c2ccc(=O)n(C)c2)c(-c2ncco2)nc1N)c1c(F)cccc1F (single isomer, unassigned) [Example 40, 3-amino-N-(1-(2,6-difluorophenyl)ethyl)-6-(1-methyl-6-oxo-1,6-dihydropyridin-3-yl)-5-(oxazol-2-yl)pyrazine-2-carboxamide]	10000	1350	51	211	5.2	–	–
Cc1cnc2ccc(-c3nc(C(=O)NCC4CCO4)c(N)nc3-c3ncco3)cn12 (single isomer, unassigned) [Example 134]	–	314	4.3	77	5.5	–	–
Cc1cnc2ccc(-c3nc(C(=O)NCC4CCO4)c(N)nc3-c3ncco3)cn12 (single isomer, unassigned) [Example 135]	–	182	2.3	23	2	–	–
Cc1cc(-c2nc(C(=O)NCc3cccc(N(C)C)n3)c(N)nc2-c2ccc(F)cc2)cc(C)n1 [Example 9, 3-amino-N-[[6-(dimethylamino)pyridin-2-yl]methyl]-6-(2,6-dimethylpyridin-4-yl)-5-(4-fluorophenyl)pyrazine-2-carboxamide]	1000	≥ 10000	5.4	25	–	≥ 10000	–
Cc1cc(-c2nc(C(=O)NCc3c(F)cccc3F)c(N)nc2-c2ncco2)ccn1 [Example 10, 3-amino-N-(2,6-difluorobenzyl)-6-(2-methylpyridin-4-yl)-5-(oxazol-2-yl) pyrazine-2-carboxamide]	58	17	17	41	–	≥ 10000	–
Cn1cc(-c2nc(C(=O)NCc3ncccc3C(F)(F)F)c(N)nc2-c2ncco2)ccc1=O [Example 11, 3-amino-6-(1-methyl-6-oxo-1,6-dihydropyridin-3-yl)-5-(oxazol-2-yl)-N-((3-(trifluoromethyl)pyridin-2-yl)methyl)pyrazine-2-carboxamide]	4490	1010	89	87	–	≥ 10000	–
Cc1cc(-c2nc(C(=O)NCc3cccc(N(C)C)n3)c(N)nc2-c2ccc(F)cc2)ccn1 [Example 12, 3-amino-N-((6-(dimethylamino)pyridin-2-yl)methyl)-5-(4-fluorophenyl)-6-(2-methylpyridin-4-yl)pyrazine-2-carboxamide]	414	9030	36	678	–	6940	–
Cn1nc(-c2nc(C(=O)NCc3c(F)cccc3F)c(N)nc2-c2ncco2)ccc1=O [Example 37, 3-amino-N-(2,6-difluorobenzyl)-6-(1-methyl-6-oxo-1,6-dihydropyridazin-3-yl)-5-(oxazol-2-yl)pyrazine-2-carboxamide]	28	95	9.3	56	–	–	1
Nc1nc(-c2ncco2)c(-c2ccc(=O)n(CCO)c2)nc1C(=O)NCc1c(F)cccc1F [Example 41, 3-amino-N-(2,6-difluorobenzyl)-6-(1-(2-hydroxyethyl)-6-oxo-1,6-dihydropyridin-3-yl)-5-(oxazol-2-yl)pyrazine-2-carboxamide]	123	38	1.6	13	–	–	3.3
Cc1ccn(-c2nc(N)c(C(=O)NC[C@H]3CCCN3C)nc2-c2ccc3ncc(C)n3c2)n1 [Example 201-2, (R)-3-amino-5-(3-methyl-1H-pyrazol-1-yl)-6-(3-methylimidazo[1,2-a]pyridin-6-yl)-N-((1-methylpyrrolidin-2-yl)methyl)pyrazine-2-carboxamide]	> 10000	> 10000	29	519	–	–	–
Cc1cnc2ccc(-c3nc(C(=O)N4CC[C@@H](N(C)C)C4)c(N)nc3-c3ccc(F)cc3)cn12 [Example 203-1, (R)-(3-amino-5-(4-fluorophenyl)-6-(3-methylimidazo[1,2-a]pyridin-6-yl)pyrazin-2-yl)(3-(dimethylamino)pyrrolidin-1-yl)methanone]	91	> 10000	15	161	–	–	–
COC[C@H]1CCCN1C(=O)c1nc(-c2ccc3ncc(C)n3c2)c(-c2ccc(F)cc2)nc1N [Example 204-1, (R)-(3-amino-5-(4-fluorophenyl)-6-(3-methylimidazo[1,2-a]pyridin-6-yl)pyrazin-2-yl)(2-(methoxymethyl)pyrrolidin-1-yl)methanone]	294	> 10000	49	249	–	–	–
Cc1cnc2ccc(-c3nc(C(=O)NCCc4nccn4C)c(N)nc3-c3ncco3)cn12 [Example 205, 3-amino-N-(2-(1-methyl-1H-imidazol-2-yl)ethyl)-6-(3-methylimidazo[1,2-a]pyridin-6-yl)-5-(oxazol-2-yl)pyrazine-2-carboxamide]	153	67	2	7.5	–	–	–
Cc1cnc2ccc(-c3nc(C(=O)NCCN4CCCC4=O)c(N)nc3-c3ncco3)cn12 [Example 208, 3-amino-6-(3-methylimidazo[1,2-a]pyridin-6-yl)-5-(oxazol-2-yl)-N-(2-(2-oxopyrrolidin-1-yl)ethyl)pyrazine-2-carboxamide]	9540	1230	8.9	19	–	–	–
Cc1cnc2ccc(-c3nc(C(=O)NCCC(=O)N4CCCCC4)c(N)nc3-c3ncco3)cn12 [Example 215, 3-amino-6-(3-methylimidazo[1,2-a]pyridin-6-yl)-5-(oxazol-2-yl)-N-(3-oxo-3-(piperidin-1-yl)propyl)pyrazine-2-carboxamide]	891	568	12	9.6	–	–	–
CNC(=O)CCNC(=O)c1nc(-c2ccc3ncc(C)n3c2)c(-c2ncco2)nc1N [Example 225, 3-amino-N-(3-(methylamino)-3-oxopropyl)-6-(3-methylimidazo[1,2-a]pyridin-6-yl)-5-(oxazol-2-yl)pyrazine-2-carboxamide]	> 10000	254	32	177	–	–	–
Cc1cnc2ccc(-c3nc(C(=O)NC[C@@H]4CCCO4)c(N)nc3-n3nccn3)cn12 [Example 226, (S)-3-amino-6-(3-methylimidazo[1,2-a]pyridin-6-yl)-N-((tetrahydrofuran-2-yl)methyl)-5-(2H-1,2,3-triazol-2-yl) pyrazine-2-carboxamide]	947	177	3	30	–	–	–
Cc1cnc2ccc(-c3nc(C(=O)NCCN(C)c4ccccn4)c(N)nc3-c3ncco3)cn12 [Example 240, 3-amino-N-(2-(methyl(pyridin-2-yl)amino)ethyl)-6-(3-methylimidazo[1,2-a]pyridin-6-yl)-5-(oxazol-2-yl)pyrazine-2-carboxamide]	108	521	18	65	–	–	–
Cc1cnc2ccc(-c3nc(C(=O)NC[C@H]4CCOC4)c(N)nc3-n3nccn3)cn12 [Example 242, (R)-3-amino-6-(3-methylimidazo[1,2-a]pyridin-6-yl)-N-((tetrahydrofuran-3-yl)methyl)-5-(2H-1,2,3-triazol-2-yl) pyrazine-2-carboxamide]	294	683	2.9	51	–	–	–
COCCNC(=O)c1nc(-c2ccc3ncc(C)n3c2)c(-n2nccn2)nc1N [Example 243, 3-amino-N-(2-methoxyethyl)-6-(3-methylimidazo[1,2-a]pyridin-6-yl)-5-(2H-1,2,3-triazol-2-yl)pyrazine-2-carboxamide]	92	181	7.6	30	–	–	–
Cc1cnc2ccc(-c3nc(C(=O)NCCN(C)c4ccccc4)c(N)nc3-c3ncco3)cn12 [Example 244, 3-amino-N-(2-(methyl(phenyl)amino)ethyl)-6-(3-methylimidazo[1,2-a]pyridin-6-yl)-5-(oxazol-2-yl)pyrazine-2-carboxamide]	260	157	16	31	–	–	–
Cc1cnc2ccc(-c3nc(C(=O)NC4CC4)c(N)nc3-c3ncco3)cn12 [Example 245, 3-amino-N-cyclopropyl-6-(3-methylimidazo[1,2-a]pyridin-6-yl)-5-(oxazol-2-yl)pyrazine-2-carboxamide]	87	247	3.8	39	–	–	–
COC1CCC(NC(=O)c2nc(-c3ccc4ncc(C)n4c3)c(-c3ncco3)nc2N)CC1 (stereo not drawn) [Example 249, 3-amino-N-(4-methoxycyclohexyl)-6-(3-methylimidazo[1,2-a]pyridin-6-yl)-5-(oxazol-2-yl)pyrazine-2-carboxamide]	> 10000	423	5.7	50	–	–	–
